Measured values reported in ChEMBL document CHEMBL3751747, “Synthesis and positive inotropic activity evaluation of liguzinediol metabolites” (Bioorg Med Chem Lett, 2016).
“And” between values parts separate entries of the source, which are not always exact repeats. Equal entries are not always repeated. One block for each compound: values may come before it.

Columns and labels:
Heart [1] = assay: Toxicity in Sprague-Dawley rat heart assessed as arrhythmias; conditions: in vivo
Heart [2] = assay: Positive inotropic activity in Sprague-Dawley rat heart assessed as heart rate at 10 umol/L (reference value: 218.67 +/- 20.62 to 260 +/- 21.81 bpm); type: functional
Heart [3] = assay: Positive inotropic activity in Sprague-Dawley rat heart assessed as left ventricular systolic pressure at 1 umol/L (reference value: 20.7 +/- 7.61 to 25.86 +/- 9.41 mmHg); type: functional, Heart left ventricle
Heart [4] = assay: Positive inotropic activity in Sprague-Dawley rat heart assessed as left ventricular diastolic pressure at 1 umol/L (reference value: -0.04 +/- 0.33 to -0.67 +/- 0.69 mmHg); type: functional, Heart left ventricle
Heart [5] = assay: Positive inotropic activity in Sprague-Dawley rat heart assessed as peak decrease rate of left ventricular pressure at 1 umol/L (reference value: - 756.58 +/- 265.23 to - 831 +/- 313.09 mmHg/s); type: functional, Heart left ventricle
Heart [6] = assay: Positive inotropic activity in Sprague-Dawley rat heart assessed as left ventricular systolic pressure at 100 umol/L (reference value: 20.7 +/- 7.61 to 25.86 +/- 9.41 mmHg); type: functional, Heart left ventricle
Heart [7] = assay: Positive inotropic activity in Sprague-Dawley rat heart assessed as peak rise rate of left ventricular pressure at 10 umol/L (reference value: 1117.66 +/- 665.76 to 1242.03 +/- 495.72 mmHg/s); type: functional, Heart left ventricle
Heart [8] = assay: Positive inotropic activity in Sprague-Dawley rat heart assessed as heart rate at 100 umol/L (reference value: 218.67 +/- 20.62 to 260 +/- 21.81 bpm); type: functional
Heart [9] = assay: Positive inotropic activity in Sprague-Dawley rat heart assessed as left ventricular diastolic pressure at 10 umol/L (reference value: -0.04 +/- 0.33 to -0.67 +/- 0.69 mmHg); type: functional, Heart left ventricle
[10] = Retention time of the compound by HPLC- MS/MS analysis; type: physicochemical
Heart [11] = assay: Positive inotropic activity in Sprague-Dawley rat heart assessed as peak decrease rate of left ventricular pressure at 10 umol/L (reference value: - 756.58 +/- 265.23 to - 831 +/- 313.09 mmHg/s); type: functional, Heart left ventricle
Heart [12] = assay: Positive inotropic activity in Sprague-Dawley rat heart assessed as left ventricular systolic pressure at 10 umol/L (reference value: 20.7 +/- 7.61 to 25.86 +/- 9.41 mmHg); type: functional, Heart left ventricle
Heart [13] = assay: Positive inotropic activity in Sprague-Dawley rat heart assessed as peak rise rate of left ventricular pressure at 1 umol/L (reference value: 1117.66 +/- 665.76 to 1242.03 +/- 495.72 mmHg/s); type: functional, Heart left ventricle
Heart [14] = assay: Positive inotropic activity in Sprague-Dawley rat heart assessed as heart rate at 1 umol/L (reference value: 218.67 +/- 20.62 to 260 +/- 21.81 bpm); type: functional
Heart [15] = assay: Positive inotropic activity in Sprague-Dawley rat heart assessed as peak decrease rate of left ventricular pressure at 100 umol/L (reference value: - 756.58 +/- 265.23 to - 831 +/- 313.09 mmHg/s); type: functional, Heart left ventricle
Heart [16] = assay: Positive inotropic activity in Sprague-Dawley rat heart assessed as peak rise of left ventricular pressure at 100 umol/L (reference value: 1117.66 +/- 665.76 to 1242.03 +/- 495.72 mmHg/s); type: functional, Heart left ventricle
Heart [17] = assay: Positive inotropic activity in Sprague-Dawley rat heart assessed as left ventricular diastolic pressure at 100 umol/L (reference value: -0.04 +/- 0.33 to -0.67 +/- 0.69 mmHg); type: functional, Heart left ventricle
Heart [18] = assay: Positive inotropic activity in Sprague-Dawley rat heart assessed as increase in left ventricular systolic pressure at 100 uM relative to control; type: functional, Heart left ventricle
Heart [19] = assay: Positive inotropic activity in Sprague-Dawley rat heart assessed as left ventricular systolic pressure; type: functional, tissue-based; conditions: Heart left ventricle
Heart [20] = assay: Positive inotropic activity in Sprague-Dawley rat heart assessed as increase in peak rise of left ventricular pressure at 100 uM relative to control; type: functional, Heart left ventricle
Heart [21] = assay: Positive inotropic activity in Sprague-Dawley rat heart assessed as -dP/dtmax; type: functional, tissue-based
Heart [22] = assay: Positive inotropic activity in Sprague-Dawley rat heart assessed as increase in left ventricular systolic pressure at 10 uM relative to control; type: functional, Heart left ventricle
Heart [23] = assay: Positive inotropic activity in Sprague-Dawley rat heart assessed as increase in left ventricular systolic pressure at 1 uM relative to control; type: functional, Heart left ventricle
Heart [24] = assay: Positive inotropic activity in Sprague-Dawley rat heart assessed as increase in peak decrease rate of left ventricular pressure at 100 uM relative to control; type: functional, Heart left ventricle; parameters: scale not given: the % may be the effect or the level left
Heart [25] = assay: Positive inotropic activity in Sprague-Dawley rat heart assessed as increase in peak rise of left ventricular pressure at 1 uM relative to control; type: functional, Heart left ventricle
Heart [26] = assay: Positive inotropic activity in Sprague-Dawley rat heart assessed as increase in peak decrease rate of left ventricular pressure at 1 uM relative to control; type: functional, Heart left ventricle; parameters: scale not given: the % may be the effect or the level left
Heart [27] = assay: Positive inotropic activity in Sprague-Dawley rat heart assessed as +dP/dtmax; type: functional, tissue-based
Heart [28] = assay: Positive inotropic activity in Sprague-Dawley rat heart assessed as increase in peak decrease rate of left ventricular pressure at 10 uM relative to control; type: functional, Heart left ventricle; parameters: scale not given: the % may be the effect or the level left
Heart [29] = assay: Positive inotropic activity in Sprague-Dawley rat heart assessed as increase in peak rise of left ventricular pressure at 10 uM relative to control; type: functional, Heart left ventricle

SMILES: Cc1nc(CO)c(C)nc1CO
Activity (Heart [1]): Non-toxic
Activity (Heart [18]): 59.4%
Activity (Heart [2]): 245.44 bpm
Activity (Heart [19]): Dose-dependent effect
Activity (Heart [4]): 0 mmHg
Activity (Heart [20]): 23.9%
Activity (Heart [21]): Dose-dependent effect
Activity (Heart [22]): 32.96%
Activity (Heart [23]): 17.65%
Activity (Heart [24]): 47.83%
Activity (Heart [8]): 238.5 bpm
Activity (Heart [25]): 4.23%
Activity (Heart [26]): 10.38%
Activity (Heart [9]): -0.19 mmHg
Activity (Heart [27]): Dose-dependent effect
Activity (Heart [28]): 24.95%
Activity (Heart [29]): 14.75%
Activity (Heart [14]): 239.06 bpm
Activity (Heart [17]): -0.34 mmHg

SMILES: CC(=O)NC(CSCc1nc(C)c(CO)nc1C)C(=O)O (stereo in doubt)
Retention_time [10]: 5.709 min

SMILES: Cc1nc(CSCC(N)C(=O)O)c(C)nc1CO (stereo in doubt)
Retention_time [10]: 2.988 min

Continued, in another order:

Retention_time [10]: 3.675 min and 3.637 min
SMILES: Cc1nc(C(=O)O)c(C)nc1CO
Activity (Heart [1]): Non-toxic
Activity (Heart [2]): 252.83 bpm
Activity (Heart [3]): 26.98 mmHg
Activity (Heart [4]): -0.24 mmHg
Activity (Heart [5]): -865.84 mmHg/s
Activity (Heart [6]): 28.51 mmHg
Activity (Heart [7]): 1286.48 mmHg/s
Activity (Heart [8]): 246.61 bpm
Activity (Heart [9]): -0.19 mmHg
Activity (Heart [11]): -892.92 mmHg/s
Activity (Heart [12]): 27.85 mmHg
Activity (Heart [13]): 1267.96 mmHg/s
Activity (Heart [14]): 259.5 bpm
Activity (Heart [15]): -904.56 mmHg/s
Activity (Heart [16]): 1299.82 mmHg/s
Activity (Heart [17]): -0.38 mmHg

Retention_time [10]: 6.71 min
SMILES: Cc1nc(CO[C@@H]2O[C@H](C(=O)O)[C@@H](O)[C@H](O)[C@H]2O)c(C)nc1CO (stereo in doubt)

Retention_time [10]: 6.687 min
SMILES: Cc1nc(CO[C@@H]2O[C@H](C(=O)O)[C@@H](O)[C@H](O)[C@H]2O)c(C)nc1CO (stereo in doubt; 2)
Activity (Heart [1]): Non-toxic
Activity (Heart [2]): 221.22 bpm
Activity (Heart [3]): 22.35 mmHg
Activity (Heart [4]): -0.73 mmHg
Activity (Heart [5]): -790.99 mmHg/s
Activity (Heart [6]): 23.76 mmHg
Activity (Heart [7]): 1123.44 mmHg/s
Activity (Heart [8]): 220.67 bpm
Activity (Heart [9]): -0.76 mmHg
Activity (Heart [11]): -804.27 mmHg/s
Activity (Heart [12]): 22.66 mmHg
Activity (Heart [13]): 1127.74 mmHg/s
Activity (Heart [14]): 234.28 bpm
Activity (Heart [15]): -733.61 mmHg/s
Activity (Heart [16]): 1127.22 mmHg/s
Activity (Heart [17]): -0.97 mmHg

Retention_time [10]: 3 min
SMILES: Cc1nc(CSCC(N)C(=O)O)c(C)nc1CO (stereo in doubt; 3)
Activity (Heart [1]): Non-toxic
Activity (Heart [2]): 227.72 bpm
Activity (Heart [3]): 25.02 mmHg
Activity (Heart [4]): -0.11 mmHg
Activity (Heart [5]): -782.91 mmHg/s
Activity (Heart [6]): 27.42 mmHg
Activity (Heart [7]): 1296.62 mmHg/s
Activity (Heart [8]): 230.67 bpm
Activity (Heart [9]): -0.09 mmHg
Activity (Heart [11]): -784.9 mmHg/s
Activity (Heart [12]): 25.68 mmHg
Activity (Heart [13]): 1303.47 mmHg/s
Activity (Heart [14]): 231.39 bpm
Activity (Heart [15]): -822.39 mmHg/s
Activity (Heart [16]): 1333.56 mmHg/s
Activity (Heart [17]): -0.24 mmHg

Retention_time [10]: 5.705 min
SMILES: CC(=O)NC(CSCc1nc(C)c(CO)nc1C)C(=O)O (stereo in doubt; 4)
Activity (Heart [1]): Non-toxic
Activity (Heart [2]): 231.5 bpm
Activity (Heart [3]): 21.22 mmHg
Activity (Heart [4]): -0.15 mmHg
Activity (Heart [5]): -799.02 mmHg/s
Activity (Heart [6]): 22.4 mmHg
Activity (Heart [7]): 1191.76 mmHg/s
Activity (Heart [8]): 232.39 bpm
Activity (Heart [9]): -0.7 mmHg
Activity (Heart [11]): -823.04 mmHg/s
Activity (Heart [12]): 21.69 mmHg
Activity (Heart [13]): 1186.33 mmHg/s
Activity (Heart [14]): 228.5 bpm
Activity (Heart [15]): -872.56 mmHg/s
Activity (Heart [16]): 1199.81 mmHg/s
Activity (Heart [17]): -0.59 mmHg
